{"source": "patent US10034915B2", "about": "“Small heat shock proteins and active fragments thereof as a therapy for inflammation and ischemia” (The Board of Trustees of the Leland Stanford Junior …, priority 2011, dated 2018)", "key": {"[1]": {"system": "EAE mice", "test": "EAE in 129Sv WT mice immunized with MOG35-55/CFA, clinical scoring", "assay_type": "in vivo, mouse", "details": "peptide every other day from peak of disease (10 μg, or 1 μg equimolar to 10 μg protein)", "method": "To investigate if the therapeutic efficacy of HSPB5 is a common feature of the whole family of small heat shock proteins, we expressed recombinant HSPB1, HSPB4, and HSPB5. We then treated EAE mice every other day starting at the peak of disease, when clinical paralysis is apparent, with an intraperitoneal (IP) administration of 10 μg of either HSPB1, HSPB4, HSPB5, or PBS as the vehicle control. […] Treating mice in vivo with HSPB1, HSPB4, or HSPB5 led to a reduction in the production of pro-inflammatory cytokines by MOG stimulated splenocytes taken from MOG immunized mice (FIG. 1c). Improvement of the clinical score was dependent on continued dosing of the sHSP. After dosing was stopped, symptoms returned, and paralysis worsened after 96 hours.\nTherapeutic Peptides from HSPB5 in EAE. […] We made a series of overlapping, 15-mer peptide fragments of HSPB5 and treated mice at the peak of disease with 10 μg of each peptide every other day, using HSPB5 as a positive control and PBS as a negative control.\n(§1) EAE induction and scoring. Mice were immunized subcutaneously with 100 μL of myelin oligodendrocyte glycoprotein (MOG) peptide 35-55 (2 mg/mL) and Complete Freund's adjuvant (CFA) (4 mg/mL) on Day 0. […] Mice were randomized at the peak of disease into the treatment groups where they received 10 ug/200 μL of sHSP, 1 μg/200 uL of sHSP peptide, or 200 μL of PBS (vehicle) every other day. Mice were scored every day on a clinical scoring system: 0, healthy mouse; 1, limp tail; 2, weak hindlimbs; 3, complete hindlimb paralysis; 4, weak forelimbs and paralyzed hindlimbs; 5, dead."}, "[2]": {"system": "pro-inflammatory cytokines of MOG stimulated splenocytes", "test": "Peripheral immune cell activation: cytokine production by MOG stimulated splenocytes of treated MOG immunized mice (ELISA)", "design": "species or system mouse", "details": "mice treated in vivo; splenocytes from MOG immunized mice", "method": "Peripheral immune cell activation and cytokine analysis. Spleens and lymph nodes were isolated from mice 9 days after immunization with MOG35-55 and CFA. Spleens were mechanically disrupted to isolate single cell splencytes suspension. Cells were cultured in flat bottomed, 96-well plates in media (RPMI 1640 supplemented with […] L-glutamine, 1 mM sodium pyruvate, 0.1 mM non-essential amino acids, 100 U/mL penicillin, 0.1 mg/mL streptomycin, 0.5 uM 2-mercaptoethanol, and 10% fetal calf serum). Cells were stimulated with MOG35-55 (5 ug/mL, 10 ug/mL, and 20 ug/mL). For all activation assays, splenocytes were pooled from three mice per group and triplicate wells were plated. Supernatants of cells were collected at the time of peak production for each cytokine (48 hrs: IL-2, IL-12p40, IL-6; 72 hrs: TNFα and IFNγ; 96 hrs: IL-17; 120 hrs: IL-10). Cytokines were measured in the supernatants using anti-mouse OPTEIA ELISA kits (BD Pharmingen for IFNγ, IL-10, IL-2, IL-6, and IL-12p40; R&D Systems for IL-17 and TNFα)."}, "[3]": {"system": "HSPB5−/− EAE mice", "test": "EAE in 129Sv HSPB5−/− mice immunized with MOG35-55/CFA", "assay_type": "in vivo, mouse", "method": "Efficacy of HSPB5 73-92 in EAE in HSPB5 deficient mice. We tested whether HSPB5 73-92 alone was sufficient to rescue EAE in alpha B crystallin deficient (HSPB5−/−) mice.\nas §1, with “Mice were randomized at the peak of disease into the treatment groups where they received 10 ug/200 μL of sHSP, 1 μg/200 uL of sHSP peptide, or 200 μL of PBS (vehicle) every other day.” left out"}, "[4]": {"system": "EAE mice", "test": "EAE in 129Sv WT mice immunized with MOG35-55/CFA, clinical scoring", "assay_type": "in vivo, mouse", "details": "prevention paradigm"}, "[5]": {"system": "partially denatured proteins", "details": "in vitro, literature; cited from earlier work"}}, "note": "Entries after “also recorded” stand apart in the source; their conditions may differ."}
{"sequence": "DRFSVNLDVKHFSPEELKVK [HSPB5 73-92]", "values": [{"measurement": "therapeutic efficacy of peptide in EAE (clinical scores)", "setting": "[1]", "result": "comparably therapeutic; also recorded: as therapeutic as HSPB5 71-85"}, {"measurement": "production of pro-inflammatory cytokines by MOG stimulated splenocytes", "setting": "[2]", "result": "decrease peripheral immune activation"}, {"measurement": "disease scores", "setting": "[3]; 10 ug peptide every other day from peak of disease", "result": "lower disease scores; also recorded: sufficient to ameliorate disease"}, {"measurement": "incidence of disease, Day 11", "setting": "[3]; treatment from Day 0", "result": 0, "unit": "%"}, {"measurement": "incidence of disease, Day 12", "setting": "[3]; treatment from Day 0", "result": 0, "unit": "%"}, {"measurement": "incidence of disease, Day 13", "setting": "[3]; treatment from Day 0", "result": 11, "unit": "%"}, {"measurement": "incidence of disease, Day 14", "setting": "[3]; treatment from Day 0", "result": 33, "unit": "%"}, {"measurement": "incidence of disease, Day 15", "setting": "[3]; treatment from Day 0", "result": 33, "unit": "%"}, {"measurement": "incidence of disease, Day 16", "setting": "[3]; treatment from Day 0", "result": 33, "unit": "%"}, {"measurement": "incidence of disease, Day 17", "setting": "[3]; treatment from Day 0", "result": 66, "unit": "%"}, {"measurement": "incidence of disease, Day 18", "setting": "[3]; treatment from Day 0", "result": 66, "unit": "%"}, {"measurement": "EAE clinical scores", "setting": "[3]; treatment from Day 0, vs PBS", "result": "ameliorated EAE"}, {"measurement": "onset of disease", "setting": "[3]; treatment from Day 0, vs PBS", "result": "delayed onset of disease"}, {"measurement": "EAE clinical scores", "setting": "[3]; treatment from Day 0, vs PBS, listed as B5 73-92", "result": "lower EAE clinical scores"}, {"measurement": "disease severity", "setting": "[4]; 10 μg peptide every day from Day 0", "result": "ameliorated EAE"}, {"measurement": "disease severity", "setting": "[4]; 10 μg peptide every day from Day 0, listed as B5 73-92", "result": "lower disease severity"}, {"measurement": "onset of disease", "setting": "[4]; treatment from Day 0", "result": "delayed onset of disease"}, {"measurement": "molecular chaperone activity", "setting": "[5]", "result": "important for molecular chaperone activity"}]}
